Literature values in US12247053B2 (priority 2018, dated 2025).

System: American isolates of H3N2

SMILES | measured resistance
CC(N)C12CC3CC(CC(C3)C1)C2 (centres unmarked) [rimantadine] | 91%
NC12CC3CC(CC(C3)C1)C2 [amantadine] | 91%
